Data as given in article PMC10574883, “Harnessing the Bioactive Potential of Limonium spathulatum (Desf.) Kuntze: Insights into Enzyme Inhibition and Phytochemical Profile” (Plants, 2023).

Target: T1, tyrosinase from mushroom
T1 construct: gene PPO3; commercial native mushroom enzyme (Fischer Scientific)
Assay: tyrosinase inhibition assay
Assay type: biochemical
Details: positive control; anomer of arbutin not stated
Text: tyrosinase inhibition assay on tyrosinase from mushroom

- Tyrosinase: 0.17 ± 0.01 mg/mL
Compound: OC[C@H]1O[C@@H](Oc2ccc(O)cc2)[C@H](O)[C@@H](O)[C@@H]1O [Arbutin]
